molecular target: human kinase Mps-1 (Homo sapiens (Human), UniProt P33981); assay: Mps-1 Kinase Assay (TR-FRET); type: biochemical; settings: N-terminally GST-tagged human full length recombinant Mps-1; 10 μM ATP; 1 μM peptide substrate; 60 min at 22° C.; read-out: Mps1 IC50
Description: The human kinase Mps-1 phosphorylates a biotinylated substrate peptide. Detection of the phosphorylated product is achieved by time-resolved fluorescence resonance energy transfer (TR-FRET) from Europium-labelled anti-phospho-Serine/Threonine antibody as donor to streptavidin labelled with cross-linked allophycocyanin (SA-XLent) as acceptor. Compounds are tested for their inhibition of the kinase activity.
N-terminally GST-tagged human full length recombinant Mps-1 kinase (purchased from Invitrogen, Karslruhe, Germany, cat. no PV4071) was used. As substrate for the kinase reaction a biotinylated peptide of the amino-acid sequence […] (C-terminus in amide form, purchased from Biosynthan GmbH, Berlin) was used.
The concentration of Mps-1 in the assay was adjusted to the activity of the enzyme lot and was chosen appropriate to have the assay in the linear range, typical enzyme concentrations were in the range of about 1 nM (final conc. in the 5 μl assay volume).
The resulting mixture was incubated 1 h at 22° C. to allow the binding of the phosphorylated peptide to the anti-phospho(Ser/Thr)-Europium-antibody. Subsequently the amount of phosphorylated substrate was evaluated by measurement of the resonance energy transfer from the Europium-labelled anti-phospho(Ser/Thr) antibody to the Streptavidin-XLent.

human kinase Mps-1, sequence (P33981 whole entry): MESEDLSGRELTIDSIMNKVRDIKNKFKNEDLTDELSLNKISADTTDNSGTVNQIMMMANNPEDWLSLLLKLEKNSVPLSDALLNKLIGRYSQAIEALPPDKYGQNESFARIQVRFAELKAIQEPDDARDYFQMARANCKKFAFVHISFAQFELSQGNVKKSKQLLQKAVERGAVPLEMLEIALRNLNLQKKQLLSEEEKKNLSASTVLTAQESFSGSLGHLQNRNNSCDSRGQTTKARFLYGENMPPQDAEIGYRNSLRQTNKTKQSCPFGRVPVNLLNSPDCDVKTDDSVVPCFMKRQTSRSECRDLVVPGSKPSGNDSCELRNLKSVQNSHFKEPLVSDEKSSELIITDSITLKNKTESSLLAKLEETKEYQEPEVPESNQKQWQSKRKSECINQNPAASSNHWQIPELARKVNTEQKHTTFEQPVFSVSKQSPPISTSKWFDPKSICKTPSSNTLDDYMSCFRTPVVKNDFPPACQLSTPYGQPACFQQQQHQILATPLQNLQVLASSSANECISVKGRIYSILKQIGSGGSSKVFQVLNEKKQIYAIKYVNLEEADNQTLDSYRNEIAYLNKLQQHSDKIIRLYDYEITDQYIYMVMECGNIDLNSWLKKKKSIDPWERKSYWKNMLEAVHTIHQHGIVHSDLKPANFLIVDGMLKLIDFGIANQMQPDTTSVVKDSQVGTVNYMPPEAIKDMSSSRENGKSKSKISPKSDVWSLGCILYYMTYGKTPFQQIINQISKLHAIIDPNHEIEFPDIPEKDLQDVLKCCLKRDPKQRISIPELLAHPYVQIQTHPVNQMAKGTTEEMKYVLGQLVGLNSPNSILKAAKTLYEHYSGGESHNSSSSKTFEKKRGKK

Row | Structure (SMILES) | IC50 [nM]
1 | CS(=O)(=O)c1nc(-c2ccccc2)cn2c(-c3ccc(C(=O)NC4CC4)cc3)cnc12 (racemic) [Example 3A, N-Cyclopropyl-4-[8-(methylsulfonyl)-6-phenylimidazo[1,2-a]pyrazin-3-yl]benzamide] | 6
2 | C[S+]([O-])c1nc(-c2ccccc2)cn2c(-c3ccc(C(=O)NC4CC4)cc3)cnc12 (racemic) [Example 3B, (RS)—N-cyclopropyl-4-[8-(methylsulfinyl)-6-phenylimidazo[1,2-a]pyrazin-3-yl]benzamide] | 8.9
3 | CCC[S+]([O-])c1nc(-c2ccccc2)cn2c(-c3ccc(C(=O)NC4CC4)cc3)cnc12 (racemic) [Example 7A, (RS) N-Cyclopropyl-4-[6-phenyl-8-(propylsulfinyl)imidazo[1,2-a]pyrazin-3-yl]benzamide] | 20
4 | O=C(NC1CC1)c1ccc(-c2cnc3c(SCC4CCCO4)nc(-c4ccccc4)cn23)cc1 (racemic) [Example 12, (RS) N-Cyclopropyl-4-{6-phenyl-8-[(tetrahydrofuran-2-ylmethyl)sulfanyl]imidazo[1,2-a]pyrazin-3-yl}benzamide] | 8
5 | CSc1nc(Br)cn2c(-c3ccc(C(=O)NC4CC4)cc3)cnc12 [Example 1, 4-[6-Bromo-8-(methylsulfanyl)imidazo[1,2-a]pyrazin-3-yl]-N-cyclopropylbenzamide] | 607
6 | CCSc1nc(-c2ccccc2)cn2c(-c3ccc(C(=O)NC4CC4)cc3)cnc12 [Example 4, N-Cyclopropyl-4-[8-(ethylsulfanyl)-6-phenylimidazo[1,2-a]pyrazin-3-yl]benzamide] | 22.2
7 | CCS(=O)(=O)c1nc(-c2ccccc2)cn2c(-c3ccc(C(=O)NC4CC4)cc3)cnc12 [Example 5B, N-Cyclopropyl-4-[8-(ethylsulfonyl)-6-phenylimidazo[1,2-a]pyrazin-3-yl]benzamide] | 7.7
8 | CCCSc1nc(-c2ccccc2)cn2c(-c3ccc(C(=O)NC4CC4)cc3)cnc12 [Example 6, N-Cyclopropyl-4-[6-phenyl-8-(propylsulfanyl)imidazo[1,2-a]pyrazin-3-yl]benzamide] | 11
9 | CCCS(=O)(=O)c1nc(-c2ccccc2)cn2c(-c3ccc(C(=O)NC4CC4)cc3)cnc12 [Example 7B, N-Cyclopropyl-4-[6-phenyl-8-(propylsulfonyl)imidazo[1,2-a]pyrazin-3-yl]benzamide] | 10.1
10 | CCCCSc1nc(-c2ccccc2)cn2c(-c3ccc(C(=O)NC4CC4)cc3)cnc12 [Example 8, 4-[8-(Butylsulfanyl)-6-phenylimidazo[1,2-a]pyrazin-3-yl]-N-cyclopropylbenzamide] | 26.3
11 | CCCCS(=O)(=O)c1nc(-c2ccccc2)cn2c(-c3ccc(C(=O)NC4CC4)cc3)cnc12 [Example 9B, 4-[8-(Butylsulfonyl)-6-phenylimidazo[1,2-a]pyrazin-3-yl]-N-cyclopropylbenzamide] | 14
12 | CC(C)(C)CCSc1nc(-c2ccccc2)cn2c(-c3ccc(C(=O)NC4CC4)cc3)cnc12 [Example 10, N-Cyclopropyl-4-{8-[(3,3-dimethylbutyl)sulfanyl]-6-phenylimidazo[1,2-a]pyrazin-3-yl}benzamide] | 85.1
13 | CC(C)(C)CCS(=O)(=O)c1nc(-c2ccccc2)cn2c(-c3ccc(C(=O)NC4CC4)cc3)cnc12 [Example 11B, N-Cyclopropyl-4-{8-[(3,3-dimethylbutyl)sulfonyl]-6-phenylimidazo[1,2-a]pyrazin-3-yl}benzamide] | 4.3
14 | O=C(NC1CC1)c1ccc(-c2cnc3c(S(=O)(=O)Cc4ccco4)nc(-c4ccccc4)cn23)cc1 [Example 28B, N-cyclopropyl-4-{8-[(2-furylmethyl)sulfonyl]-6-phenylimidazo[1,2-a]pyrazin-3-yl}benzamide] | 7.1

The remaining lines, values ahead:

Row | IC50 [nM] | Structure (SMILES)
15 | 5.2 | CS(=O)(=NC(=O)C(F)(F)F)c1nc(-c2ccccc2)cn2c(-c3ccc(C(=O)NC4CC4)cc3)cnc12 (racemic) [Example 15, (RS) N-cyclopropyl-4-{8-[S-methyl-N-(trifluoroacetyl)sulfonimidoyl]-6-phenylimidazo[1,2-a]pyrazin-3-yl}benzamide]
16 | 12.7 | CC(C)C[S+]([O-])c1nc(-c2ccccc2)cn2c(-c3ccc(C(=O)NC4CC4)cc3)cnc12 (racemic) [Example 22A, (RS) N-cyclopropyl-4-[8-(isobutylsulfinyl)-6-phenylimidazo[1,2-a]pyrazin-3-yl]benzamide]
17 | 14.5 | CC(C)CC[S+]([O-])c1nc(-c2ccccc2)cn2c(-c3ccc(C(=O)NC4CC4)cc3)cnc12 (racemic) [Example 24A, (RS) N-cyclopropyl-4-{8-[(3-methylbutyl)sulfinyl]-6-phenylimidazo[1,2-a]pyrazin-3-yl}benzamide]
18 | 6.2 | O=C(NC1CC1)c1ccc(-c2cnc3c([S+]([O-])CC(F)(F)F)nc(-c4ccccc4)cn23)cc1 (racemic) [Example 26A, (RS) N-cyclopropyl-4-{6-phenyl-8-[(2,2,2-trifluoroethyl)sulfinyl]imidazo[1,2-a]pyrazin-3-yl}benzamide]
19 | 67.6 | CC(C)(C)OC(=O)NCCSc1nc(-c2ccccc2)cn2c(-c3ccc(C(=O)NC4CC4)cc3)cnc12 [Example 16, tert-butyl [2-({3-[4-(cyclopropylcarbamoyl)phenyl]-6-phenylimidazo[1,2-a]pyrazin-8-yl}sulfanyl)ethyl]carbamate]
20 | 79.8 | CCCCCSc1nc(-c2ccccc2)cn2c(-c3ccc(C(=O)NC4CC4)cc3)cnc12 [Example 17, N-cyclopropyl-4-[8-(pentylsulfanyl)-6-phenylimidazo[1,2-a]pyrazin-3-yl]benzamide]
21 | 7.5 | CCCCCS(=O)(=O)c1nc(-c2ccccc2)cn2c(-c3ccc(C(=O)NC4CC4)cc3)cnc12 [Example 18B, N-cyclopropyl-4-[8-(pentylsulfonyl)-6-phenylimidazo[1,2-a]pyrazin-3-yl]benzamide]
22 | 22.3 | CC(C)Sc1nc(-c2ccccc2)cn2c(-c3ccc(C(=O)NC4CC4)cc3)cnc12 [Example 19, N-cyclopropyl-4-[8-(isopropylsulfanyl)-6-phenylimidazo[1,2-a]pyrazin-3-yl]benzamide]
23 | 13.9 | CC(C)S(=O)(=O)c1nc(-c2ccccc2)cn2c(-c3ccc(C(=O)NC4CC4)cc3)cnc12 [Example 20B, N-cyclopropyl-4-[8-(isopropylsulfonyl)-6-phenylimidazo[1,2-a]pyrazin-3-yl]benzamide]
24 | 13.2 | CC(C)CSc1nc(-c2ccccc2)cn2c(-c3ccc(C(=O)NC4CC4)cc3)cnc12 [Example 21, N-cyclopropyl-4-[8-(isobutylsulfanyl)-6-phenylimidazo[1,2-a]pyrazin-3-yl]benzamide]
25 | 6.4 | CC(C)CS(=O)(=O)c1nc(-c2ccccc2)cn2c(-c3ccc(C(=O)NC4CC4)cc3)cnc12 [Example 22B, N-cyclopropyl-4-[8-(isobutylsulfonyl)-6-phenylimidazo[1,2-a]pyrazin-3-yl]benzamide]
26 | 25.2 | CC(C)CCSc1nc(-c2ccccc2)cn2c(-c3ccc(C(=O)NC4CC4)cc3)cnc12 [Example 23, N-cyclopropyl-4-{8-[(3-methylbutyl)sulfanyl]-6-phenylimidazo[1,2-a]pyrazin-3-yl}benzamide]
27 | 6.5 | CC(C)CCS(=O)(=O)c1nc(-c2ccccc2)cn2c(-c3ccc(C(=O)NC4CC4)cc3)cnc12 [Example 24B, N-cyclopropyl-4-{8-[(3-methylbutyl)sulfonyl]-6-phenylimidazo[1,2-a]pyrazin-3-yl}benzamide]
28 | 26.3 | O=C(NC1CC1)c1ccc(-c2cnc3c(SCC(F)(F)F)nc(-c4ccccc4)cn23)cc1 [Example 25, N-cyclopropyl-4-{6-phenyl-8-[(2,2,2-trifluoroethyl)sulfanyl]imidazo[1,2-a]pyrazin-3-yl}benzamide]
29 | 8.1 | O=C(NC1CC1)c1ccc(-c2cnc3c(S(=O)(=O)CC(F)(F)F)nc(-c4ccccc4)cn23)cc1 [Example 26B, N-cyclopropyl-4-{6-phenyl-8-[(2,2,2-trifluoroethyl)sulfonyl]imidazo[1,2-a]pyrazin-3-yl}benzamide]
30 | 40.8 | O=C(NC1CC1)c1ccc(-c2cnc3c(SCc4ccco4)nc(-c4ccccc4)cn23)cc1 [Example 27, N-cyclopropyl-4-{8-[(2-furylmethyl)sulfanyl]-6-phenylimidazo[1,2-a]pyrazin-3-yl}benzamide]
31 | 544 | CSc1nc(-c2ccccc2)cn2c(-c3ccc(-c4cnc(C5CC5)[nH]4)cc3)cnc12 [Example 29, 3-[4-(2-cyclopropyl-1H-imidazol-5-yl)phenyl]-8-(methylsulfanyl)-6-phenylimidazo[1,2-a]pyrazine]
32 | 3100 | C=Cc1ccc(-c2cn3c(-c4ccc(-c5cnc(C6CC6)[nH]5)cc4)cnc3c(SC)n2)cc1 [Example 30, 3-[4-(2-cyclopropyl-1H-imidazol-5-yl)phenyl]-8-(methylsulfanyl)-6-(4-vinylphenyl)imidazo[1,2-a]pyrazine]
33 | 125 | CSc1nc(-c2ccncc2)cn2c(-c3ccc(-c4cnc(C5CC5)[nH]4)cc3)cnc12 [Example 31, 3-[4-(2-cyclopropyl-1H-imidazol-5-yl)phenyl]-8-(methylsulfanyl)-6-(pyridin-4-yl)imidazo[1,2-a]pyrazine]
34 | 19.9 | CC(=O)NCCSc1nc(-c2ccccc2)cn2c(-c3ccc(C(=O)NC4CC4)cc3)cnc12 [Example 33]

Source: patent US9468642B2, “Imidazopyrazines” (BAYER INTELLECTUAL PROPERTY GMBH, priority 2011, dated 2016)
